These are literature values, as cited in patent US20230338329A1, “C[…] COMPOSITION AND METHOD OF MANUFACTURING” (priority 2022, published 2023).

For the data set the following is noted: hydrophilic-lipophilic balance value.

For the compound `CCCCCCCCCCCCOS(=O)(=O)[O-].[Na+]` [sodium lauryl sulfate], the HLB was 40.

Sorbitan monooleate [Span 80]: the HLB is recorded as 4.9. Consider alkyl phenyl polyoxyethylene ether, for which the HLB is reported as 14.5. Regarding polyoxyethylene sorbitan monooleate, the HLB is 15.
